Data: patent publication EP4806892A1, “CEREBLON E3 UBIQUITIN LIGASE INHIBITOR” (GAN & LEE PHARMACEUTICALS CO., LTD., priority 2023, dated 2025)

Key:
Type in all cases: cell-based
[1] = target: T1, AR protein (Homo sapiens, UniProt P10275); experiment: AR protein degradation in VCaP cells (Western blot); details: 8h
T1 construct: AR-positive human prostate cancer cells VCaP (cell source: ATCC); host or cells: VCaP
T1 sequence (P10275 1-920): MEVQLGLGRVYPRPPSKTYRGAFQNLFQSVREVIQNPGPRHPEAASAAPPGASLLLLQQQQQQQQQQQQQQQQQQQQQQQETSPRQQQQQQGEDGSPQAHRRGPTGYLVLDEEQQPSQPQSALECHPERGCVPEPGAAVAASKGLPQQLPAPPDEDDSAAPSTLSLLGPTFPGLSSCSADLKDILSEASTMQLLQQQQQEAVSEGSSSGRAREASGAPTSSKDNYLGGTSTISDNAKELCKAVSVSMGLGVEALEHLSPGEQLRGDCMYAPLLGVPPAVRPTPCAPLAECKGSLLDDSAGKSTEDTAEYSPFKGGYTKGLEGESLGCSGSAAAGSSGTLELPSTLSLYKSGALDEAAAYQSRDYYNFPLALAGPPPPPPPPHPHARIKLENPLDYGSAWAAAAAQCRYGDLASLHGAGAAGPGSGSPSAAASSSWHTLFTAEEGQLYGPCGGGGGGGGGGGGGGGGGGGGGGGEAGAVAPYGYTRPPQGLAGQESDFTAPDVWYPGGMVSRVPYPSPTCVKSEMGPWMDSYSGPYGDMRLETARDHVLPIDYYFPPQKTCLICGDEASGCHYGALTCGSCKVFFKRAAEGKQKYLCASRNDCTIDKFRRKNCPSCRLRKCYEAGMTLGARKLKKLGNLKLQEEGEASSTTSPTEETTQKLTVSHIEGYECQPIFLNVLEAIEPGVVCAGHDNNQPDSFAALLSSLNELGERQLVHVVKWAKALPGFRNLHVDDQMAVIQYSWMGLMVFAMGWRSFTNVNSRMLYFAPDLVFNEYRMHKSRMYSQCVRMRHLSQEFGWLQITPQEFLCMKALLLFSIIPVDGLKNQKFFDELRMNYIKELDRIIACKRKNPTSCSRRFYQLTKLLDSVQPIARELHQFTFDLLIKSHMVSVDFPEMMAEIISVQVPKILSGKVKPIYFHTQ
Procedure: AR-positive human prostate cancer cells VCaP (cell source: ATCC) were cultured in DMEM (GiBco catalog number 11995-065) containing 10% FBS (Hyclone catalog number SH30406.05), and the cells were inoculated in a six-well microplate (Thermo catalog number 140675) at a density of 3 × 10^5 cells/well. After being cultured overnight in a carbon dioxide incubator (ESCO), the prepared compound of the present invention and the positive control sample ARV-766 (energy chemical) solution of different concentrations were added at a volume of 1 µL/well to make the final concentrations of the compound and the positive control sample reach 5nM and 0.5nM, respectively. At the same time, the corresponding solvent control was set and cultured for 8h. After 8h of culture, the culture medium was removed, and the cells were washed with PBS. RIPA lysis buffer containing 1% Protease Inhibitor Cocktail was added. After lysis and centrifugation, a total protein extract was obtained, and the protein concentration in the extract was detected by BCA method. Protein electrophoresis was performed using SDS-PAGE, and then the protein was transferred to a PVDF (Millipore Sigma catalog number PSRP010R5) membrane at a constant voltage of 100V for 60min. The PVDF membrane was placed in a 5% milk powder 1×TBST solution and blocked at room temperature for 1h. The primary antibody solution (Anti-Androgen receptor, Cell Signaling Technology catalog number: 5153S; 1:2000 dilution) was prepared and incubated at 4°C overnight. The primary antibody solution was discarded and the PVDF membrane was washed with 1×TBST for 5 minutes each time, three times. The secondary antibody solution (Thermo catalog number SA5-35571; 1:7500 dilution) was prepared and incubated at room temperature for 1 hour. The secondary antibody solution was discarded and the PVDF membrane was washed with 1×TBST for 5 minutes each time, three times. A dual-color infrared laser imaging system (Licor catalog number Odyssey CLX) was used for Western membrane imaging. The Image Studio software was used to analyze the grayscale of the bands. GAPDH protein bands were also detected for each sample as an internal reference. The AR protein degradation rate of the compound and the positive control sample was calculated based on the grayscale of the protein bands. Among them, "A" means degradation rate ≥ 50%, "B" means 50%> degradation rate ≥ 20%, "C" means 20% degradation rate ≥ 10%, and "D" means degradation rate less than 10%.

[2] = system: TNFα; experiment: LPS-induced TNFα secretion by PBMC (HTRF detection); details: Homo sapiens, hPBMC, 20 hours compound then LPS 200 ng/mL for 5 hours, read-out: IC50 (inhibition of LPS-induced TNFα)
Procedure: (§1) After thawing, cryopreserved hPBMC (FPB003F-C, Shanghai OriBiotech) cells were resuspended in RPMI 1640 medium (30-2001,ATCC) containing 10% inactivated FBS (10099141C, Gibco) and cultured overnight at 37°C and 5% CO2. The next day, hPBMC cells were seeded in a 96-well cell culture plate at a density of 2 × 10^5 cells/well/100 µL (2 × 10^6 cells/mL), and 100 µL of compound in dimethyl sulfoxide solution (final concentration 0.0064-2500 nM) was added. […] The cell plate was placed in a 37°C, 5% CO2 incubator for 5 hours, and then centrifuged at 1000 rpm for 15 minutes. 100 µL of cell supernatant was collected from each well for cytokine concentration testing, which was tested immediately or frozen at -80°C for testing.
The TNFα concentration in the supernatant of LPS-induced THP-1 cells was determined using the TNF […] detection kit (62[…], PerkinElmer).
TNFα standard solutions of varying concentrations were prepared according to the product instructions, ranging from 0 to 2500 pg/mL. Equal volumes of Eu Cryptate antibody (1×) and d2 antibody (1×) were used to prepare the antibody mixture. 16 µL of standard solution or sample supernatant and 4 µL of the antibody mixture were added to each well of a 384-well white plate. The mixture was centrifuged at 800 rpm for 1 minute and incubated at room temperature for 2 hours. The absorbance at 620 nm and […] was read using a microplate reader (SPARK m1000pro, TECAN). A standard curve was plotted using the signal values of each TNFα standard solution. The TNFα concentration in each sample was determined based on the corresponding concentration of the signal value on the standard curve. The inhibitory rate of the compound on LPS-induced TNFα expression in THP-1 cell supernatants at different drug concentrations was calculated based on the TNFα concentration. The inhibition rate data were plotted in GraphPad Prism 8.0 software, and the IC50 value was calculated. Inhibition Rate = [1−(OD(Sample)−OD(Blank))/(OD(Control)−OD(Blank))] × 100% [formula] Table 9: Degradation effect of example compounds on IRAK4 in PBMC cells

[3] = system: IL-6; experiment: LPS-induced IL-6 secretion by hPBMC (ELISA); details: Homo sapiens, 20 h compound then LPS 200 ng/mL for 5 h; for inhibition at […]: 2500nM, read-out: Inhibition Rate of IL-6 (2500nM)
Procedure: as §1, with “OriBiotech.)” for “OriBiotech)”, “(30-2001, ATCC)” for “(30-2001,ATCC)”, “h,” for “hours,”, “min.” for “minutes.”, “awhich” for “which”
The IL-6 concentration in the supernatant of hPBMC cells induced by LPS was determined using a Human IL-6 ELISA kit (D6050, RD).
IL-6 standard solutions of varying concentrations were prepared according to the product instructions, ranging from 0 to 300 pg/mL. 100 µL of Assay Diluent RD1W and 100 µL of standard solution or sample supernatant were added to a pre-coated ELISA plate and incubated at room temperature for 2 hours. After washing the plate four times with 1× wash buffer, then 200 µL of Human IL-6 Conjugate was added and incubated at room temperature for 2 hours. After washing the plate four times with 1× wash buffer, then 200 µL of Substrate Solution was added and incubated at room temperature for 20 minutes. Finally, 50 µL of Stop Solution was added to terminate the reaction. The absorbance at 450 nm and 570 nm were read using a microplate reader (SPARK m1000pro, TECAN). The standard curve was plottd by the signal value of each concentration of IL-6 standard solution, and the IL-6 concentration in each sample was determined according to the corresponding concentration of the signal value of each well on the standard curve. The inhibition rate of the compound on LPS-induced IL-6 in the hPBMC cell supernatant at different drug concentrations was calculated according to the IL-6 concentration. The inhibition rate data were plotted in GraphPad Prism 8.0 software to calculate the IC50 value. Inhibition Rate = [1−(OD(sample)−OD(blank))/(OD(control)−OD(blank))] × 100% [formula] Table 10: Inhibitory effect of Example compounds on LPS-induced IL-6 secretion by hPBMC

Row | SMILES | Degradation rate of AR protein in VCAP cells ([1]; 0.5 nM) | Degradation rate of AR protein in VCAP cells ([1]; 5 nM) | IC50 [2] | inhibition at […] [3] | inhibition at 0.02 µM ([3]; 20nM, read-out: Inhibition Rate of IL-6 (20nM))
1 | C[C@H]1CC2(CCN(c3ccc(C(=O)N4CCC(F)(CN5CCC6(CC5)COc5cc(N7CCC(=O)NC7=O)ccc56)CC4)cc3)CC2)CN1c1ccc(C#N)c(Cl)c1 [A-P-265, (S)-2-chloro-4-(8-(4-(4-((6-(2,4-dioxotetrahydropyrimidin-1(2H)-yl)-2H-spiro[benzofuran-3,4'-piperidine]-1'-yl)methyl)-4-fluoropiperidine-1-carbonyl)phenyl)-3-methyl-2,8-diazaspiro[4.5]dec-2-yl)benzonitrile] | B (50%> degradation rate ≥ 20%) | A (degradation rate ≥ 50%) | – | – | –
2 | O=C1CCN(c2ccc3c(c2)CC2(CO3)CN(CC3CCN(C(=O)C4CCC(n5cc(NC(=O)c6cnn7ccc(N8CC9CC8CO9)nc67)c(C(F)F)n5)CC4)CC3)C2)C(=O)N1 (centres unmarked) [IR-P-6] | – | – | 95.6 nM | 65% | –
3 | O=C1CCN(c2ccc3c(c2)CC2(CCN(CC4CCN(C(=O)C5CCC(n6cc(NC(=O)c7cnn8ccc(N9CC%10CC9CO%10)nc78)c(C(F)F)n6)CC5)CC4)CC2)O3)C(=O)N1 (centres unmarked) [IR-P-7] | – | – | – | 46% | –
4 | Cn1c(=O)n(C2CCC(=O)NC2=O)c2cccc(C#CCOC3CCN(C[C@H]4CC[C@H](n5cc(NC(=O)c6cnn7ccc(N8C[C@H]9C[C@@H]8CO9)nc67)c(C(F)F)n5)CC4)CC3)c21 (some centres unmarked) [KT-474, reference compound] | – | – | 52.3 nM | 85% | 63%
